{"source": "patent US20090232735A1", "about": "“USE OF FRUCTOSE-BASED THERAPIES FOR THE TREATMENT OF CANCER” (CEDARS-SINAI MEDICAL CENTER, priority 2005, published 2009)", "format_in_all_cases": "cell-based, human", "key": {"[1]": {"test_system": "fructokinase-1 (FK-1) mRNA", "experiment": "Fructokinase-1 mRNA by RT-PCR in MCF-7 cells", "conditions": "MCF-7, 5 mM sugar, compared with 2 mM glucose", "method": "FIG. 7 depicts fructokinase-1 expression in accordance with an embodiment of the present invention. Breast cancer cells (MCF-7) express Fructokinase-1 (FK-1). RT-PCR was used to measure fructokinase-1 (FK-1) mRNA levels in MCF-7 cells following growth in 2 mM glucose, 5.5 mM glucose, or 5.5 mM fructose for 24 h, and in two human breast cancers (BT 1 & 2), and matched adjacent normal breast tissue (NB 1 & 2) from the same individual. […] Human liver, and exclusion of template served as positive and negative controls.\nThe inventors used RT-PCR analysis and specific primer pairs (SEQ ID NO: 1 (3′[…]), SEQ ID NO: 2 (5′[…])) to examine fructokinase-1 (FK-1) mRNA levels in glucose- or fructose-treated breast cancer cells. […] Also examined were FK-1 mRNA levels in two surgically resected human breast cancers, and paired adjacent normal breast tissue from the same individual. FK-1 mRNA was detectable in both normal and tumor tissue."}, "[2]": {"test_system": "proliferating cell nuclear antigen (PCNA)", "experiment": "PCNA Western blot in PANC-1 cells", "conditions": "PANC-1, 5.5 mM sugar, 48 h, compared to 2 mM glucose", "method": "FIG. 19 depicts PCNA expression in accordance with an embodiment of the present invention. PANC-1 cells were plated in 2 mM, and 5.5 mM glucose, or 5.5 mM fructose for 48 h, after which proliferating cell nuclear antigen (PCNA) levels were measured by Western blot analysis.\nAdditionally, protein extracts were harvested in RIPA buffer from the PANC-1 cells following 2 mM, 5.5 mM glucose-, and fructose-treatment for 48 h, analyzed by Western blot, and immunoblotted using a specific monoclonal antibody to proliferating cell nuclear antigen (PCNA)."}, "[3]": {"test_system": "AP-1 activation in PANC-1 cells", "experiment": "AP-1 probe binding assay, PANC-1 nuclear extracts", "conditions": "PANC-1, 5.5 mM fructose, 48 h", "method": "FIG. 24 depicts luciferase activity of PANC-1 cells and primary culture of surgically resected pancreatic tumor cells in accordance with an embodiment of the present invention. PANC-1 pancreatic cancer cells and a primary culture of a surgically resected pancreatic tumor were incubated in 2 mM glucose, 5.5 mM glucose or 5.5 mM fructose for 48 h, after which nuclear extracts were incubated with a biotinylated AP-1 probe, and detected by an antibody-linked colorimetric method. *, p<0.01\nIn separate experiments PANC-1 cells, and primary cultures of surgically resected pancreatic tumors were incubated in 2 mM glucose, or 5.5 mM glucose or 5.5 mM fructose for 48 h, after which nuclear extracts were incubated with a biotinylated AP-1 probe in binding buffer. AP-1/AP1 probe complexes were next conjugated to a streptavidin-coated assay plate and detected using an AP-1 specific antibody, followed by binding of a horseradish-peroxidase conjugated secondary antibody, and detection by a colorimetric reagent."}, "[4]": {"test_system": "PANC-1 pancreatic cancer cells", "experiment": "[1,2-13C2] stable isotope metabolic profiling in PANC-1 cells", "method": "FIG. 28 depicts the metabolism of fructose and glucose in pancreatic cancer cells in accordance with an embodiment of the present invention. Lactate generation from glycolysis (a), and hexose oxidation in the pentose and tricarboxylic acid cycles (b) following treatment of PANC-1 cells with 2 mM glucose, 5.5 mM glucose, and 5.5 mM fructose for 72 h. […] In (b), the ^13C to ^12C ratio in the CO2 released from the PANC-1 cells is presented.\nFIG. 29 depicts fatty acid synthesis from glucose versus fructose in accordance with an embodiment of the present invention. Fatty acid synthesis represented by (a), ^13C-labelled oleate, (b) ^13C-labelled arachidic acid, and (c) ^13C-labelled 24-carbon fatty acid fraction following treatment of PANC-1 cells with 2 mM, and 5.5 mM glucose, and 5.5 mM fructose for 72 h. For the fatty acids, the fraction of ^13C-labeled oleate, arachidic acid or 24-carbon fatty acid is expressed as percentage of total oleate, arachidic acid or 24-carbon fatty acids, respectively.\nFIG. 30 depicts ribose and deoxyribose synthesis following glucose and fructose treatment in accordance with an embodiment of the present invention.\nMetabolism comprises anabolic (converting small molecules into big ones) and catabolic processes (converting food into useful energy), predicts the functional state of a cell, and analyzes the levels of the end products (metabolites) of anabolism and catabolism. […] The inventors employed [1, 2-^13C2] glucose, or [1,2-^13C2] fructose stable isotope-based dynamic metabolic profiling (SiDMAP, Los Angeles, US) to track and quantify changes in glucose, and fructose carbon re-distribution among major metabolic pathways in pancreatic cancer cells (Lee W N, Boros L G, Puigjaner J, Bassilian S, Lim S, Cascante M. Mass istopomer study of transketolase-transaldolase pathways of the pentose cycle with [1,2-^13C2]glucose. Am J Physiol 274:E843-51, 1998; Lee W N, Byerley L O, Bassilian S, Ajie H O, Clark I, Edmond J. Isotopomer study of lipogenesis in human hepatoma cells in culture: contribution of carbon and hydrogen atoms from glucose. […]"}}, "data": [{"smiles": "O=C(CO)[C@@H](O)[C@H](O)[C@H](O)CO", "note": "[fructose]", "values": [{"measurement": "FK-1 mRNA levels (RT-PCR)", "setting": "[1]", "value": "highest FK-1 levels"}, {"measurement": "PCNA expression", "setting": "[2]", "value": "highest PCNA levels"}, {"measurement": "AP-1 luciferase reporter activity higher than in 5.5 mM glucose", "setting": "[3]", "value": "approximately 40%"}, {"measurement": "pentose phosphate shunt pathway used (oxidative G6PDH vs non-oxidative TKK)", "setting": "[4]; PANC-1, 5.5 mM sugar, 72 h", "value": "preferentially metabolized by TKK"}, {"measurement": "lactate and CO2 production lower for fructose in comparison to glucose", "setting": "[4]; PANC-1, 13C-labeled sugar, 72 h", "value": "3-4 fold"}, {"measurement": "13C-labeled sugar metabolized for fatty acid synthesis", "setting": "[4]; PANC-1, 72 h, fructose compared to glucose", "value": "comparatively less"}]}]}
